pEC50, pIC50: −log10 of the molar value.
How the values were obtained:
[1] = system: Human immunodeficiency virus 1; assay: (§1) Antiviral activity was determined against wild type HIV-1 in MT-4 cells infected with HIV-1 IIIB using an XTT assay; format: functional; details: Human immunodeficiency virus 1, MT4; read-out: ED50 (the source's name)
[2] = system: Human immunodeficiency virus 1; assay: as §1; format: functional; details: Human immunodeficiency virus 1, MT4; read-out: ED50 (the source's name); remark: listed apart in the source
[3] = system: Human immunodeficiency virus 1; assay: Antiviral activity was determined against HIV-1 (clone 90) in MT-4 cells infected with HIV-1 IIIB using an XTT assay; format: functional; details: Human immunodeficiency virus 1, MT4; read-out: ED50 (the source's name)
[4] = molecular target: Human immunodeficiency virus type 1 reverse transcriptase (Human immunodeficiency virus 1, UniProt Q72547, L100I); assay: Inhibitory effect on recombinant HIV- 1 reverse transcriptase which has a mutation Leu 100 to Ile 100 (clone 118)
[5] = molecular target: Human immunodeficiency virus type 1 reverse transcriptase (Human immunodeficiency virus 1, UniProt Q72547); assay: Inhibitory effect on wild type HIV- 1 reverse transcriptase using rCdG as template and dGTP as substrate.
[6] = system: Human immunodeficiency virus 1; assay: Antiviral activity was determined against HIV-1 (clone 118) in MT-4 cells infected with HIV-1 IIIB using an XTT assay; format: functional; details: Human immunodeficiency virus 1, MT4; read-out: ED50 (the source's name)
[7] = molecular target: Human immunodeficiency virus type 1 reverse transcriptase (Human immunodeficiency virus 1, UniProt Q72547, Y181C); assay: Inhibitory effect on recombinant HIV- 1 reverse transcriptase which has a mutation Tyr 181 to Cys 181 (clone 90)
MT4 [8] = assay: Compound was tested for its inhibitory effect on HIV-1 in MT-4 cells; format: functional; details: Homo sapiens, read-out: ED50 (the source's name)
MT4 [9] = assay: Antiviral activity was determined against wild type HIV- I in MT-4 cells infected with HIV-1 IIIB using an XTT assay which contains 15% human AB serum.; format: functional; details: read-out: ED50 (the source's name)

Row | SMILES | pEC50 [1] | pEC50 [2] | pEC50 [3] | pIC50 [4] | pIC50 [5] | pEC50 [6] | pIC50 [7] | pEC50 (MT4 [8]) | pEC50 (MT4 [9])
1 | CCOc1ccc(F)c([C@H]2C[C@H]2NC(=O)Nc2ccc(Cl)cn2)c1F | 8.10 | 7.52 | 6.57 | 7.10 | 8.82 | 6.12 | 7.82 |  | 
2 | CCOc1ccc(F)c([C@H]2C[C@H]2NC(=O)Nc2ccc(Cl)cn2)c1Cl | 7.80 | 7.22 |  | 7.10 | 8.10 | 7.00 | 7.30 |  | 
3 | CCOc1ccc(F)c([C@H]2C[C@H]2NC(=O)Nc2ccc(C#N)cn2)c1Cl | 8.00 | 7.70 | 6.28 | 7.10 | 8.40 | 6.57 | 7.15 |  | 
4 | COc1ccc(OC)c(CCNC(=O)Nc2ccc(Cl)cn2)c1F | 7.96 | 7.05 | 5.52 | 6.85 | 8.52 | 4.77 | 6.85 |  | 
5 | CN(C)c1ccc(F)c(CCNC(=O)Nc2ccc(Br)cn2)c1F | 6.30 |  | < 4.60 | < 5.60 | 7.60 | < 4.60 | 5.82 |  | 
6 | S=C(NCCc1ccccc1)Nc1nccs1 |  |  |  |  |  |  |  | 5.89 | 
7 | CCc1cc(NCc2nc3c(Cl)ccc(Cl)c3o2)c(O)nc1C [L-697661] | 7.19 |  | < 4.96 | 5.80 |  | 6.07 | 4.82 |  | 
8 | CCOc1ccc(OC)c(CCNC(=O)Nc2ccc(Cl)cn2)c1F | 6.89 |  | < 4.57 | 5.60 | 8.10 | 4.85 | 6.30 |  | 
9 | CCOc1ccc(Cl)c([C@H]2C[C@H]2NC(=O)Nc2ccc(Cl)cn2)c1F | 8.10 | 7.00 | 7.00 | 7.30 | 8.82 | 7.00 | 7.70 |  | 
10 | Cc1ccnc2c1NC(=O)c1cccnc1N2C1CC1 [NEVIRAPINE] | 6.82 |  | 4.66 |  |  | 6.21 |  |  | 
11 | O=C(Nc1ccc(Cl)cn1)N[C@@H]1C[C@@H]1c1c(F)cccc1F | 8.22 |  |  | 7.52 | 8.70 |  | 6.92 |  | 8.00
12 | COc1ccc(C(C)=O)c(F)c1CCNC(=O)Nc1ccc(Cl)cn1 | 6.70 |  | < 4.57 | 5.96 | 7.00 | < 4.57 | 5.00 |  | 
13 | O=C(NCCc1c(F)cccc1F)Nc1ccc(Cl)cn1 | 7.52 | 6.07 | < 4.49 |  |  | 4.49 |  |  | 
14 | CCOc1ccc(F)c(CCNC(=O)Nc2ccc(Br)cn2)c1Cl | 7.15 |  | 5.10 | 5.77 | 8.40 | 4.82 | 6.62 |  | 
15 | S=C(NCCc1ccccn1)Nc1ccc(Br)cn1 [TROVIRDINE] | 7.70 | 5.30 | < 5.30 | 6.15 |  | 6.10 | 5.49 |  | 
16 | CCOc1ccc(OC)c([C@H]2C[C@H]2NC(=O)Nc2ccc(Br)cn2)c1F | 7.60 | 6.40 |  | 6.62 | 8.15 |  | 7.05 |  | 
17 | COc1ccc(OC)c([C@H]2C[C@H]2NC(=O)Nc2ccc(Cl)cn2)c1F | 7.92 | 7.00 | 5.57 | 6.57 | 8.70 | 5.80 | 6.57 |  | 
